Test system: HeLa cells
Assay: siRNA pretreatment with or without low dose doxorubicin, HeLa cell survival (drug sensitization)
Format: cell-based
Details: 50 fold lower than the LD90, dose response experiment
Description: FIG. 6A is a graph illustrating percent cell survival following treatment with a gene-specific siRNA, with or without a low dose drug. Seventy-six test siRNAs (2 or 3 siRNAs per gene plus 6 control siRNAs), targeting 29 novel candidate genes, were transfected into HeLa cells.
FIG. 6B is an enlarged section of the graph in FIG. 6A.
FIG. 6C is a graph of the same data of FIG. 6A plotted as a percentage increase in sensitivity relative to the untreated sample.
An analysis was conducted by a similar method as described in FIG. 4, with two main differences. First, a different set of siRNAs were used. The siRNAs targeted 29 novel candidate genes that were previously identified by cDNA microarray and CGH analysis to be overexpressed and amplified in 14 breast cancer cell lines (Hyman et al., Cancer Res. 62:6240-5, 2002). There were 76 test siRNAs (2 or 3 siRNA per gene plus 6 control siRNAs). The second difference in this study was that the number of experiments was doubled to include a low dose doxorubicin (“Dox”) treatment. Four replicates of the no-drug control, and four replicates of the low dose drug were prepared for a total of 8 wells treated with each siRNA. The HeLa cells were transfected with siRNA as described above, and the cells were allowed to incubate for 24 hours to achieve silencing of the targeted genes. […]

Question: For `COc1cccc2c1C(=O)c1c(O)c3c(c(O)c1C2=O)C[C@@](O)(C(=O)CO)C[C@@H]3O[C@H]1C[C@H](N)[C@H](O)[C@H](C)O1` [Dox, doxorubicin], which “effect of low dose Dox on HeLa cell survival” value is on record?
Answer: no effect

From patent US20070141067A1, “TARGETED CANCER THERAPY” (MAYO MEDICAL VENTURES, priority 2004, published 2007)
